Laboratory results: ChEMBL document CHEMBL6074678, “Selectively Antagonizing the NOD1-Mediated Inflammatory Signaling Pathway Mitigates the Gastric Inflammation Induced by Helicobacter pylori Infection” (J Med Chem, 2024)
pIC50: −log10 of the molar value. Values after ≈ are worked out from the molar mass of the structure shown. Active and inactive are the calls of the source. No cut-off for these calls is given here.

Tests used:
[1] = target: T1, Nucleotide-binding oligomerization domain-containing protein 1 (Homo sapiens, UniProt Q9Y239); assay: Antagonist activity at human NOD1 expressed in HEK-Blue cells assessed as decrease in SEAP secretion incubated for 3 hrs followed by C12-iE-DAP stimulation for 20 hrs by spectrophotometry; assay type: cell-based, HEK-Blue hNOD1
T1 sequence (Q9Y239 whole entry): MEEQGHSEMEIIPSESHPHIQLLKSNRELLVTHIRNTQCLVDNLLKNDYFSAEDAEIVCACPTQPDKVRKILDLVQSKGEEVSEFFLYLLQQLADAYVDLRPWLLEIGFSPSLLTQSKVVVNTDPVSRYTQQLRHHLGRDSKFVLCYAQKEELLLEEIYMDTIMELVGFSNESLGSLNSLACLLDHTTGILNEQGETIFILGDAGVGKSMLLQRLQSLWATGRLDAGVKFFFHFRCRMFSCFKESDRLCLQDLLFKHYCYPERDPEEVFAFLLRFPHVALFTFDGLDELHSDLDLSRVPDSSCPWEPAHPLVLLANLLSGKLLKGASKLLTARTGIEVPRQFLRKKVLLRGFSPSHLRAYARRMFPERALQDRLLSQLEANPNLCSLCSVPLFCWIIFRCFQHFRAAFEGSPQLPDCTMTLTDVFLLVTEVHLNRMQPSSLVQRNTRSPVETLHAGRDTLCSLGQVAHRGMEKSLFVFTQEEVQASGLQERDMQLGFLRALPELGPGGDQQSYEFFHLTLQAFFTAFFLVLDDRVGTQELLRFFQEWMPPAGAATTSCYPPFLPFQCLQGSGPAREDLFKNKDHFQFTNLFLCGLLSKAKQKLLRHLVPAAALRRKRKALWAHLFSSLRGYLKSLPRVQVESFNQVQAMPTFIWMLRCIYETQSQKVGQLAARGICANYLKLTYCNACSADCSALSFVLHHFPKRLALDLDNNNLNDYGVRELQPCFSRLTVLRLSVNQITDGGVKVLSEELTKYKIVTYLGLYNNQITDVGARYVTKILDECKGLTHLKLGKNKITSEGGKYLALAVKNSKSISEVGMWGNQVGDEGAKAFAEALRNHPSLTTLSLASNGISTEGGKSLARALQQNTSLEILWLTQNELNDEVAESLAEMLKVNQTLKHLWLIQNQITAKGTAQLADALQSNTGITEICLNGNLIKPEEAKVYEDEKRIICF

[2] = Solubility of compound in phosphate buffer at pH 7.2 to 7.4; assay type: physicochemical
[3] = target: T2, Nucleotide-binding oligomerization domain-containing protein 1 (Mus musculus, UniProt Q8BHB0); assay: Antagonist activity at mouse NOD1 expressed in HEK-Blue cells assessed as decrease in SEAP secretion incubated for 3 hrs followed by C12-iE-DAP stimulation for 20 hrs by spectrophotometry; assay type: cell-based, HEK-Blue mNOD1
T2 sequence (Q8BHB0 whole entry): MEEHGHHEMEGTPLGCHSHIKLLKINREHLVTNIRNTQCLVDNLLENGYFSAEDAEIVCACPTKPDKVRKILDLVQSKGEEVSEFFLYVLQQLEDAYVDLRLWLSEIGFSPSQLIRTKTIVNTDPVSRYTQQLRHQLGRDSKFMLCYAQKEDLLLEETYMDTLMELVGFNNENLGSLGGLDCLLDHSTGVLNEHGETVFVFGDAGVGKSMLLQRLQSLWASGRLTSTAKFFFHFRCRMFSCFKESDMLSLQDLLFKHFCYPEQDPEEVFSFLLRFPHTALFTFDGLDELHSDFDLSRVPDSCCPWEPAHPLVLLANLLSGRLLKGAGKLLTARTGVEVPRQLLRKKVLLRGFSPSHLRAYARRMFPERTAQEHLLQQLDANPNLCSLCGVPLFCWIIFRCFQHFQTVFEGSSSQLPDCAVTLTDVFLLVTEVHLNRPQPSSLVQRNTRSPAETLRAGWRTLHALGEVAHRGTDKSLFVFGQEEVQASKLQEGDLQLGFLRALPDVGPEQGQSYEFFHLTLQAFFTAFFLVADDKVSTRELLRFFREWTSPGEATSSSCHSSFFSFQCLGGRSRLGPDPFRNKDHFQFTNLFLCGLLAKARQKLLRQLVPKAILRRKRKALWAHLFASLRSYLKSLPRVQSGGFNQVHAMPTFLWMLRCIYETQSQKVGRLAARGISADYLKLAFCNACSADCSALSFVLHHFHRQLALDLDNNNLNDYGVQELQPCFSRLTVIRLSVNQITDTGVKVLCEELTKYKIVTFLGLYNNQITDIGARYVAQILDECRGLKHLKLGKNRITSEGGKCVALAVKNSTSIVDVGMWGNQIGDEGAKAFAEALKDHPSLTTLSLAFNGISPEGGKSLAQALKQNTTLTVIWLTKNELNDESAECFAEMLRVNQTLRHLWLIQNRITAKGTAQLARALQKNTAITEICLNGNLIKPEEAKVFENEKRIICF

[4] = target: Receptor-interacting serine/threonine-protein kinase 2 (Homo sapiens) (UniProt O43353); assay: Inhibition of RIP2 (unknown origin) at 10 uM relative to control
Chain of Receptor-interacting serine/threonine-protein kinase 2 (Homo sapiens) (O43353 whole entry, the tested form may be a part): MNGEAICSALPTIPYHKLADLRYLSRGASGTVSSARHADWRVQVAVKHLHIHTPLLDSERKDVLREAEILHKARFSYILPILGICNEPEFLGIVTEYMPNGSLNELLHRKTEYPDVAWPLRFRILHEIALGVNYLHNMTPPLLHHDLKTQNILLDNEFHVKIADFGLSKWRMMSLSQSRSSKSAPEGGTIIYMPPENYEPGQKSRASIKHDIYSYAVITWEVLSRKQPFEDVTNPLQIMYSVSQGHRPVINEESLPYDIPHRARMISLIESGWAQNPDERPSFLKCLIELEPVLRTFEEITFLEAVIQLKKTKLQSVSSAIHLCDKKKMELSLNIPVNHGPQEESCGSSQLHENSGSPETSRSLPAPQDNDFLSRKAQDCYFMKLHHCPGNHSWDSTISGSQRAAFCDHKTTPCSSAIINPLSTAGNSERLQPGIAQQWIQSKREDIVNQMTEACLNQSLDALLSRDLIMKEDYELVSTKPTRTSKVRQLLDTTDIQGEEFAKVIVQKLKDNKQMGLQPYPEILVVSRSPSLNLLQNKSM

[5] = target: T3, Nucleotide-binding oligomerization domain-containing protein 1 (Mus musculus) (UniProt Q8BHB0); assay: Antagonist activity at mouse NOD1 expressed in HEK-Blue cells assessed as decrease in SEAP secretion at 1 uM incubated for 3 hrs followed by C12-iE-DAP stimulation for 20 hrs by spectrophotometry relative to control; assay type: cell-based; settings: HEK-Blue mNOD1, filed as antagonist, time 23.0 hrs
T3 sequence (whole entry): T2 sequence (Q8BHB0 whole entry)

[6] = target: T3, Nucleotide-binding oligomerization domain-containing protein 1 (Mus musculus); assay: Antagonist activity at NOD1 in mouse BMDM cells assessed as decrease in phosphorylated p38 level at 0.1 to 1 uM incubated for 1 hr followed by C12-iE-DAP stimulation for 30 mins by Western blot analysis; assay type: cell-based; settings: filed as antagonist, dose 0.1-1 µM, time 1.5 hrs
[7] = tested on: BMDM; assay: Anti-inflammatory activity in mouse BMDM cells assessed as decrease in TNF-alpha mRNA level at 1 to 5 uM pretreated for 1 hr followed by infection with Helicobacter pylori for 2 hrs by RT-qPCR analysis; assay type: functional, cell-based; settings: dose 1-5 µM, time 3.0 hrs
[8] = Cytotoxicity against HEK-Blue mNOD1 cells by SRB assay; assay type: toxicity, cell-based; settings: human
[9] = target: T2, Nucleotide-binding oligomerization domain-containing protein 1; assay: Antagonist activity at mouse NOD1 expressed in HEK293 cells assessed as decrease in NF-kappaB activation; assay type: cell-based
[10] = tested on: THP-1; assay: Anti-inflammatory activity in human THP-1 cells assessed as decrease in TNF-alpha mRNA level at 0.1 uM pretreated for 1 hr followed by C12-iE-DAP stimulation for 2 hrs by RT-qPCR analysis relative to control; assay type: functional; parameters: scale not given: the % may be the effect or the level left; settings: time 3 hrs
[11] = target: T4, Nucleotide-binding oligomerization domain-containing protein 1 (Homo sapiens) (UniProt Q9Y239); assay: Antagonist activity at NOD1 in human THP-1 cells assessed as decrease in phosphorylated p65 level at 0.1 to 1 uM incubated for 1 hr followed by C12-iE-DAP stimulation for 30 mins by Western blot analysis; assay type: cell-based; settings: filed as antagonist, dose 0.1-1 µM, time 1.5 hrs
T4 sequence (whole entry): T1 sequence (Q9Y239 whole entry)

[12] = target: T4, Nucleotide-binding oligomerization domain-containing protein 1 (Homo sapiens); assay: Thermal stabilization of NOD1 (unknown origin) transfected in HEK293 cells at 0.1 to 5 uM incubated for 1 hr heated at higher temperature by CETSA; assay type: cell-based; settings: dose 0.1-5 µM

Structure (SMILES) | pIC50 [1] | solubility [2] | pIC50 [3] | inhibition [4] | inhibition [5] | inhibition [6] | Activity [7] | Activity [8] | pIC50 [9] | Activity [10] | inhibition [11] | Activity [12]
N#Cc1ccc2nc(Cl)n(-c3ccc(Cl)c(NS(=O)(=O)c4c(F)cccc4F)c3)c(=O)c2c1 | 8.66 | 48.8 µg/mL (≈ 96.2 µM) | 7.27 | < 10% | 73.6% |  |  |  |  |  |  | 
CS(=O)(=O)c1ccc2nc(Cl)n(-c3ccc(Cl)c(NS(=O)(=O)c4ccc5ncsc5c4)c3)c(=O)c2c1 | 9.05 | 21.5 µg/mL (≈ 37 µM) | 7.24 | 10.5% | 87.2% |  |  |  |  |  |  | 
CS(=O)(=O)c1ccc2nc(Cl)n(-c3ccc(Cl)c(NS(=O)(=O)c4c(F)cccc4F)c3)c(=O)c2c1 | 9.10 | 44.6 µg/mL (≈ 79.6 µM) | 7.49 | 11.4% | 80.8% | Active | Active | Non-toxic | 7.49 | ~100% | Active | Active
